Source: ChEMBL document CHEMBL5036344, “Design and application of hybrid cyclic-linear peptide-doxorubicin conjugates as a strategy to overcome doxorubicin resistance and toxicity” (Eur J Med Chem, 2021)
The source made the active and inactive calls. The rule behind the calls is not given here.

What was measured:
CCRF-CEM [1] = assay: Cytotoxicity against human CCRF-CEM cells assessed as reduction in cell viability at 25 uM incubated for 24 hrs by MTT assay; format: functional
CCRF-CEM [2] = assay: Cytotoxicity against human CCRF-CEM cells assessed as reduction in cell viability at 5 to 10 uM incubated for 24 hrs by MTT assay; format: functional, cell-based; settings: dose 5-10 µM
[3] = Drug uptake in rat H9c2 cells assessed as doxorubicin fluorescence measured at 24 to 72 hrs by fluorescence microscopy analysis; format: ADME, cell-based; settings: time 24-72 hrs
[4] = Drug uptake in human SK-OV-3 cells at 5 uM incubated for 24 hrs by fluorescence microscopy; format: ADME, cell-based; settings: sk-ov-3, 24 h
[5] = Drug uptake in human SK-OV-3 cells assessed as doxorubicin fluorescence incubated for 3 hrs by fluorescence microscopy; format: ADME, cell-based; settings: sk-ov-3, 3 h
MES-SA = assay: Cytotoxicity against human MES-SA cells assessed as reduction in cell viability incubated for 72 hrs by MTT assay; format: functional; settings: read-out: LC50 (the source's name)
MDA-MB-231 [6] = assay: Cytotoxicity against doxorubicin resistant human MDA-MB-231 cells assessed as reduction in cell viability incubated for 72 hrs by MTT assay; format: functional; settings: read-out: LC50 (the source's name)
[7] = Stability of compound in 10% FBS assessed as parent compound remaining after 24 hrs by HPLC analysis; format: ADME; settings: cattle, 10% FBS (fetal bovine serum), read-out: Stability
H9c2 [8] = assay: Cytotoxicity against rat H9c2 cells assessed as reduction in cell viability at 5 to 10 uM incubated upto 96 hrs by MTT assay; format: cell-based; settings: h9c2, 96 h, dose 5-10 µM
H9c2 [9] = assay: Cytotoxicity against rat H9c2 cells assessed as reduction in cell viability at 25 uM incubated for 24 hrs by MTT assay; format: cell-based; settings: h9c2, 24 h
H9c2 [10] = assay: Cytotoxicity against rat H9c2 cells assessed as reduction in cell viability at 25 uM incubated for 72 hrs by MTT assay; format: cell-based; settings: h9c2, 72 h
H9c2 [11] = assay: Cytotoxicity against rat H9c2 cells assessed as reduction in cell viability at 25 uM incubated for 96 hrs by MTT assay; format: cell-based; settings: h9c2, 96 h
LLC-PK1 [12] = assay: Cytotoxicity against pig LLC-PK1 cells assessed as reduction in cell viability at 10 uM incubated for 24 to 72 hrs by MTT assay; format: cell-based, Sus scrofa; settings: llc-pk1, 10 µM, time 24-72 hrs
LLC-PK1 [13] = assay: Cytotoxicity against pig LLC-PK1 cells assessed as reduction in cell viability at 50 uM by MTT assay; format: cell-based, Sus scrofa; settings: llc-pk1, 50 µM
AGS [14] = assay: Cytotoxicity against human AGS cells assessed as reduction in cell viability at 5 to 10 uM incubated for 24 hrs by MTT assay; format: functional, cell-based; settings: dose 5-10 µM
AGS [15] = assay: Cytotoxicity against human AGS cells assessed as reduction in cell viability incubated for 72 hrs by MTT assay; format: functional
SK-OV-3 [16] = assay: Cytotoxicity against human SK-OV-3 cells assessed as reduction in cell viability at 25 uM incubated for 72 hrs by MTT assay; format: functional
SK-OV-3 [17] = assay: Cytotoxicity against human SK-OV-3 cells assessed as reduction in cell viability at 5 uM incubated for 72 hrs by MTT assay; format: functional
SK-OV-3 [18] = assay: Cytotoxicity against human SK-OV-3 cells assessed as reduction in cell viability at 10 uM incubated for 72 hrs by MTT assay; format: functional
MDA-MB-231 [19] = assay: Cytotoxicity against wild type human MDA-MB-231 cells assessed as reduction in cell viability incubated for 72 hrs by MTT assay; format: functional; settings: read-out: LC50 (the source's name)
[20] = Drug uptake in nucleus of human MDA-MB-231 cells by confocal microscopy in the presence of 6 ug/mL chloroquine; format: ADME, subcellular
[21] = Protein binding in 20% FBS by HPLC analysis; format: ADME, cell-free, Bos taurus; settings: cattle, serum
CCRF-CEM [22] = assay: Cytotoxicity against human CCRF-CEM cells assessed as reduction in cell viability at 5 to 25 uM after 72 hrs incubation by MTT assay; format: functional; settings: dose 5-25 µM
[23] = Drug uptake in nucleus of human MDA-MB-231 cells by confocal microscopy in the presence of 20 ug/mL chlorpromazine; format: ADME, subcellular
[24] = Drug uptake in nucleus of human MDA-MB-231 cells by confocal microscopy in the presence of 50 ug/mL nystatin; format: ADME, subcellular
[25] = Drug uptake in nucleus of human MDA-MB-231 cells by confocal microscopy in the presence of 50 ug/mL genistein; format: ADME, subcellular
[26] = Drug uptake in human MDA-MB-231 cells by flow cytometry in the presence of 30 uM chlorpromazine; format: ADME, cell-based
[27] = Drug uptake in human MDA-MB-231 cells by flow cytometry in the presence of 2.5 mM methyl-beta-cyclodextrin; format: ADME, cell-based
[28] = Drug uptake in human MDA-MB-231 cells by flow cytometry in the presence of 100 uM chloroquine; format: ADME, cell-based
[29] = Drug uptake in human MDA-MB-231cells by flow cytometry in the presence of 50 ug/mL nystatin; format: ADME
CCRF-CEM [30] = assay: Cytotoxicity against human CCRF-CEM cells assessed as reduction in cell viability at 25 uM incubated for 72 hrs by MTT assay; format: functional
H9c2 [31] = assay: Cytotoxicity against rat H9c2 cells assessed as reduction in cell viability at 5 to 25 uM incubated upto 96 hrs by MTT assay; format: cell-based; settings: h9c2, 96 h, dose 5-25 µM

COc1cccc2c1C(=O)c1c(O)c3c(c(O)c1C2=O)C[C@@](O)(C(=O)COC(=O)CCCC(=O)NCCC(=O)N[C@@H](Cc1c[nH]c2ccccc12)C(=O)N[C@@H](Cc1c[nH]c2ccccc12)C(=O)N[C@@H](Cc1c[nH]c2ccccc12)C(=O)N[C@@H](Cc1c[nH]c2ccccc12)C(=O)N[C@@H](Cc1c[nH]c2ccccc12)C(=O)N[C@@H](Cc1c[nH]c2ccccc12)C(=O)N[C@@H](Cc1c[nH]c2ccccc12)C(=O)NCCCC[C@@H]1NC(=O)[C@H](CCCNC(=N)N)NC(=O)[C@H](CCCNC(=N)N)NC(=O)[C@H](CCCNC(=N)N)NC(=O)[C@H](CCCNC(=N)N)NC(=O)[C@H](CCCNC(=N)N)NC1=O)C[C@@H]3O[C@H]1C[C@H](N)[C@H](O)[C@H](C)O1
Activity (CCRF-CEM [1]): 64% | Activity (CCRF-CEM [2]): Active | Drug uptake [3]: Not Active | Drug uptake [4]: Active | Drug uptake [5]: Not Active | CC50 (MES-SA): 41 µM | CC50 (MDA-MB-231 [6]): 36 µM | remaining at 24 h [7]: 25% | Activity (H9c2 [8]): Non-Toxic | Activity (H9c2 [9]): 68% | Activity (H9c2 [10]): 37% | Activity (H9c2 [11]): 39% | Activity (LLC-PK1 [12]): Non-Toxic | Activity (LLC-PK1 [13]): 33% | Activity (AGS [14]): inactive | Activity (AGS [15]): 73% | Activity (SK-OV-3 [16]): 48% | Activity (SK-OV-3 [17]): 29% | Activity (SK-OV-3 [18]): 39% | CC50 (MDA-MB-231 [19]): 560 nM | Drug uptake [20]: Active | Activity [21]: Active | Activity (CCRF-CEM [22]): 84% | Drug uptake [23]: Active | Drug uptake [24]: Active | Drug uptake [25]: Active | Drug uptake [26]: 78% | Drug uptake [27]: 72% | Drug uptake [28]: Active | Drug uptake [29]: Active

COc1cccc2c1C(=O)c1c(O)c3c(c(O)c1C2=O)C[C@@](O)(C(=O)CO)C[C@@H]3O[C@H]1C[C@H](NC(=N)CCCSSC[C@H](NC(C)=O)C(=O)N[C@@H](Cc2c[nH]c3ccccc23)C(=O)N[C@@H](Cc2c[nH]c3ccccc23)C(=O)N[C@@H](Cc2c[nH]c3ccccc23)C(=O)N[C@@H](Cc2c[nH]c3ccccc23)C(=O)N[C@@H](Cc2c[nH]c3ccccc23)C(=O)N[C@@H](Cc2c[nH]c3ccccc23)C(=O)N[C@@H](Cc2c[nH]c3ccccc23)C(=O)NCCCC[C@@H]2NC(=O)[C@H](CCCNC(=N)N)NC(=O)[C@H](CCCNC(=N)N)NC(=O)[C@H](CCCNC(=N)N)NC(=O)[C@H](CCCNC(=N)N)NC(=O)[C@H](CCCNC(=N)N)NC2=O)[C@H](O)[C@H](C)O1
Activity (CCRF-CEM [30]): 79% | Activity (H9c2 [31]): Non-Toxic
